Reference: ChEMBL document CHEMBL3603814, “Heterocyclic chalcone activators of nuclear factor (erythroid-derived 2)-like 2 (Nrf2) with improved in vivo efficacy” (Bioorg Med Chem, 2015)
Calls of active or inactive are those of the source. The calls are words filed in the database; no cut-off is given here.

Key:
Mus musculus [1] = assay: Increase in HO-1 protein expression in mouse lung at 400 mg/kg, po measured 6 hrs post dose by ELISA method; format: functional, organism-based
Mus musculus [2] = assay: Increase in HO-1 gene expression in mouse lung at 200 mg/kg, po measured 6 hrs post dose by qPCR method; format: functional, organism-based
[3] = molecular target: T1, Nuclear factor erythroid 2-related factor 2 (Homo sapiens) (UniProt Q16236); assay: Activation of Nrf2 in human BEAS2B cells assessed as increase in HO1 gene expression at 5 uM incubated for 6 hrs by qPCR method; format: cell-based
T1 sequence (whole entry): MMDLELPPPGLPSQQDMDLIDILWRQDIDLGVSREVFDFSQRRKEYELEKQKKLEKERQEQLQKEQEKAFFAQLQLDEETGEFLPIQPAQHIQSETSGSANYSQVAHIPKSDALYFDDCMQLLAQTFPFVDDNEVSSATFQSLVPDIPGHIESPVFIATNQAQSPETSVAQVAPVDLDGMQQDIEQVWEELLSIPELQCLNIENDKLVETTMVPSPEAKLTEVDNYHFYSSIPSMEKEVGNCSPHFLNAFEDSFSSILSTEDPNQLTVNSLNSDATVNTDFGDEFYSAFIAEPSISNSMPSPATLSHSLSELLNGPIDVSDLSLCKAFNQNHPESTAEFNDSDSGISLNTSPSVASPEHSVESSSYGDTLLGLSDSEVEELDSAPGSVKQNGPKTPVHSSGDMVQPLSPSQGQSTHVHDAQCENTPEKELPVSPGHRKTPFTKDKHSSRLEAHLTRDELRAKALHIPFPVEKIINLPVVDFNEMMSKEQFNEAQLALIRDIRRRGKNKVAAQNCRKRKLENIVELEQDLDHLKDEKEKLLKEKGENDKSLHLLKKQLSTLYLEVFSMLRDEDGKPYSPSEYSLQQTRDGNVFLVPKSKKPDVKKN

Mus musculus [4] = assay: Increase in HO-1 protein expression in mouse lung at 200 mg/kg, po measured 6 hrs post dose by ELISA method; format: functional, organism-based
Mus musculus [5] = assay: Increase in HO-1 gene expression in mouse lung at 400 mg/kg, po measured 6 hrs post dose by qPCR method; format: functional, organism-based
[6] = molecular target: T1, Nuclear factor erythroid 2-related factor 2 (Homo sapiens); assay: Activation of Nrf2 in human BEAS2B cells assessed as increase in HO1 gene expression at 10 uM incubated for 6 hrs by qPCR method; format: cell-based

Compound: COc1ccccc1C(=O)/C=C/c1ccccc1C(F)(F)F
- Activity (Mus musculus [1]): Active
- Activity (Mus musculus [2]): Active
- Activity [3]: Active
- Activity (Mus musculus [4]): Active
- Activity (Mus musculus [5]): Active

Compound: COc1ccccc1C(=O)/C=C/c1ncccc1C(F)(F)F
- Activity (Mus musculus [1]): Active
- Activity (Mus musculus [2]): Active
- Activity [3]: Active
- Activity (Mus musculus [5]): Active

Compound: COc1cnccc1C(=O)/C=C/c1ccccc1C(F)(F)F
- Activity [3]: Active

Compound: COc1ccncc1C(=O)/C=C/c1ccccc1C(F)(F)F
- Activity [3]: Active

Compound: COc1ccccc1C(=O)/C=C/c1cnccc1C(F)(F)F
- Activity [3]: Active

Compound: COC(=O)[C@]12CCC(C)(C)C[C@H]1[C@H]1C(=O)C=C3[C@@]4(C)C=C(C#N)C(=O)C(C)(C)[C@@H]4CC[C@@]3(C)[C@]1(C)CC2
- Activity [6]: Active

Compound: COc1ccccc1C(=O)/C=C/c1ccncc1C(F)(F)F
- Activity [3]: Active
